Measured values reported in ChEMBL document CHEMBL4680133, “Novel nitroimidazole derivatives evaluated for their trypanocidal, cytotoxic, and genotoxic activities” (Eur J Med Chem, 2020).

How the values were obtained:
HepG2 [1] = assay: Cytotoxicity against human HepG2 cells at 21.3 to 427 uM measured after 24 hrs by LDH assay; assay type: cell-based; conditions: hepg2, 24 h, dose 21.3-427 µM
[2] = Toxicity in Salmonella typhimurium YG1024 at 5 to 100 ug/plate after 20 mins by colony counting method; conditions: salmonella enterica subsp. enterica serovar typhimurium, dose 5-100 µg
RAW264.7 [3] = assay: Genotoxicity in mouse RAW264.7 cells assessed as mitotic index at 213 uM measured after 24 hrs by micronucleus test (reference value: 40 to 249); assay type: toxicity, cell-based; conditions: raw264.7, 24 h
RAW264.7 [4] = assay: Genotoxicity in mouse RAW264.7 cells assessed as mitotic index at 427 uM measured after 24 hrs by micronucleus test (reference value: 40 to 249); assay type: toxicity, cell-based; conditions: raw264.7, 24 h
RAW264.7 [5] = assay: Genotoxicity in mouse RAW264.7 cells assessed as mitotic index at 2135 uM measured after 24 hrs by micronucleus test (reference value: 40 to 249); assay type: toxicity, cell-based; conditions: raw264.7, 24 h
RAW264.7 [6] = assay: Genotoxicity in mouse RAW264.7 cells assessed as mitotic index at 4270 uM measured after 24 hrs by micronucleus test (reference value: 40 to 249); assay type: toxicity, cell-based; conditions: raw264.7, 24 h
RAW264.7 [7] = assay: Genotoxicity in mouse RAW264.7 cells assessed as number of micronucleated cells at 213 uM measured after 24 hrs by micronucleus test (reference value: 12 to 15); assay type: toxicity, cell-based; conditions: raw264.7, 24 h
RAW264.7 [8] = assay: Genotoxicity in mouse RAW264.7 cells assessed as number of micronucleated cells at 4270 uM measured after 24 hrs by micronucleus test (reference value: 12 to 15); assay type: toxicity, cell-based; conditions: raw264.7, 24 h
[9] = Genotoxicity in mouse RAW264.7 cells assessed as survival at 427 uM measured after 24 hrs by micronucleus test (reference value: 100%); assay type: toxicity, cell-based; conditions: read-out: Survival
HepG2 [10] = assay: Genotoxicity in human HepG2 assessed as mitotic index at 427 uM measured after 24 hrs by micronucleus test (reference value: 61 to 108); assay type: toxicity, cell-based; conditions: hepg2, 24 h
HepG2 [11] = assay: Genotoxicity in human HepG2 assessed as mitotic index at 2135 uM measured after 24 hrs by micronucleus test (reference value: 61 to 108); assay type: toxicity, cell-based; conditions: hepg2, 24 h
HepG2 [12] = assay: Genotoxicity in human HepG2 assessed as number of micronucleated cells at 213 uM measured after 24 hrs by micronucleus test (reference value: 14 to 18); assay type: toxicity, cell-based; conditions: hepg2, 24 h
HepG2 [13] = assay: Genotoxicity in human HepG2 assessed as number of micronucleated cells at 2135 uM measured after 24 hrs by micronucleus test (reference value: 14 to 18); assay type: toxicity, cell-based; conditions: hepg2, 24 h
HepG2 [14] = assay: Genotoxicity in human HepG2 assessed as number of micronucleated cells at 4270 uM measured after 24 hrs by micronucleus test (reference value: 14 to 18); assay type: toxicity, cell-based; conditions: hepg2, 24 h
[15] = Genotoxicity in human HepG2 assessed as survival at 213 uM measured after 24 hrs by micronucleus test (reference value: 100%); assay type: toxicity, cell-based; conditions: HepG2 cells, read-out: Survival
[16] = Genotoxicity in human HepG2 assessed as survival at 2135 uM measured after 24 hrs by micronucleus test (reference value: 100%); assay type: toxicity, cell-based; conditions: HepG2 cells, read-out: Survival
RAW264.7 [17] = assay: Cytotoxicity against mouse RAW264.7 cells assessed as induction of membrane damage at 17.5 to 350 uM measured after 24 hrs by LDH assay; assay type: cell-based; conditions: raw264.7, 24 h, dose 17.5-350 µM
RAW264.7 [18] = assay: Genotoxicity in mouse RAW264.7 cells assessed as mitotic index at 175 uM measured after 24 hrs by micronucleus test (reference value: 40 to 249); assay type: toxicity, cell-based; conditions: raw264.7, 24 h
RAW264.7 [19] = assay: Genotoxicity in mouse RAW264.7 cells assessed as mitotic index at 350 uM measured after 24 hrs by micronucleus test (reference value: 40 to 249); assay type: toxicity, cell-based; conditions: raw264.7, 24 h
RAW264.7 [20] = assay: Genotoxicity in mouse RAW264.7 cells assessed as mitotic index at 3500 uM measured after 24 hrs by micronucleus test (reference value: 40 to 249); assay type: toxicity, cell-based; conditions: raw264.7, 24 h
RAW264.7 [21] = assay: Genotoxicity in mouse RAW264.7 cells assessed as number of micronucleated cells at 175 uM measured after 24 hrs by micronucleus test (reference value: 12 to 15); assay type: toxicity, cell-based; conditions: raw264.7, 24 h
RAW264.7 [22] = assay: Genotoxicity in mouse RAW264.7 cells assessed as number of micronucleated cells at 350 uM measured after 24 hrs by micronucleus test (reference value: 12 to 15); assay type: toxicity, cell-based; conditions: raw264.7, 24 h
RAW264.7 [23] = assay: Genotoxicity in mouse RAW264.7 cells assessed as number of micronucleated cells at 1750 uM measured after 24 hrs by micronucleus test (reference value: 12 to 15); assay type: toxicity, cell-based; conditions: raw264.7, 24 h
RAW264.7 [24] = assay: Genotoxicity in mouse RAW264.7 cells assessed as number of micronucleated cells at 3500 uM measured after 24 hrs by micronucleus test (reference value: 12 to 15); assay type: toxicity, cell-based; conditions: raw264.7, 24 h
[25] = Genotoxicity in mouse RAW264.7 cells assessed as survival at 175 uM measured after 24 hrs by micronucleus test (reference value: 100%); assay type: toxicity, cell-based; conditions: read-out: Survival
[26] = Genotoxicity in mouse RAW264.7 cells assessed as survival at 350 uM measured after 24 hrs by micronucleus test (reference value: 100%); assay type: toxicity, cell-based; conditions: read-out: Survival
HepG2 [27] = assay: Genotoxicity in human HepG2 assessed as mitotic index at 175 uM measured after 24 hrs by micronucleus test (reference value: 61 to 108); assay type: toxicity, cell-based; conditions: hepg2, 24 h
HepG2 [28] = assay: Genotoxicity in human HepG2 assessed as mitotic index at 350 uM measured after 24 hrs by micronucleus test (reference value: 61 to 108); assay type: toxicity, cell-based; conditions: hepg2, 24 h
HepG2 [29] = assay: Genotoxicity in human HepG2 assessed as mitotic index at 1750 uM measured after 24 hrs by micronucleus test (reference value: 61 to 108); assay type: toxicity, cell-based; conditions: hepg2, 24 h
HepG2 [30] = assay: Genotoxicity in human HepG2 assessed as mitotic index at 3500 uM measured after 24 hrs by micronucleus test (reference value: 61 to 108); assay type: toxicity, cell-based; conditions: hepg2, 24 h
HepG2 [31] = assay: Genotoxicity in human HepG2 assessed as number of micronucleated cells at 175 uM measured after 24 hrs by micronucleus test (reference value: 14 to 18); assay type: toxicity, cell-based; conditions: hepg2, 24 h
HepG2 [32] = assay: Genotoxicity in human HepG2 assessed as number of micronucleated cells at 350 uM measured after 24 hrs by micronucleus test (reference value: 14 to 18); assay type: toxicity, cell-based; conditions: hepg2, 24 h
HepG2 [33] = assay: Genotoxicity in human HepG2 assessed as number of micronucleated cells at 1750 uM measured after 24 hrs by micronucleus test (reference value: 14 to 18); assay type: toxicity, cell-based; conditions: hepg2, 24 h
HepG2 [34] = assay: Genotoxicity in human HepG2 assessed as number of micronucleated cells at 3500 uM measured after 24 hrs by micronucleus test (reference value: 14 to 18); assay type: toxicity, cell-based; conditions: hepg2, 24 h
[35] = Genotoxicity in human HepG2 assessed as survival at 175 uM measured after 24 hrs by micronucleus test (reference value: 100%); assay type: toxicity, cell-based; conditions: HepG2 cells, read-out: Survival
[36] = Genotoxicity in human HepG2 assessed as survival at 350 uM measured after 24 hrs by micronucleus test (reference value: 100%); assay type: toxicity, cell-based; conditions: HepG2 cells, read-out: Survival
[37] = Genotoxicity in human HepG2 assessed as survival at 1750 uM measured after 24 hrs by micronucleus test (reference value: 100%); assay type: toxicity, cell-based; conditions: HepG2 cells, read-out: Survival
[38] = Genotoxicity in human HepG2 assessed as survival at 3500 uM measured after 24 hrs by micronucleus test (reference value: 100%); assay type: toxicity, cell-based; conditions: HepG2 cells, read-out: Survival

With Cn1cnc([N+](=O)[O-])c1-n1cc(C2CC2)nn1 the Activity (HepG2 [1]) was “Non-Toxic”, the Activity [2] was “Non-Toxic” and the Activity_index (RAW264.7 [3]) was 30. It also gave an Activity_index (RAW264.7 [4]) of 34, an Activity_index (RAW264.7 [5]) of 37 and an Activity_index (RAW264.7 [6]) of 36. The Activity (RAW264.7 [7]) was 12, the Activity (RAW264.7 [8]) was 20 and the viability at 24 h, 427 µM [9] was 99%. For the same compound, the Activity_index (HepG2 [10]) was 106, the Activity_index (HepG2 [11]) was 101 and the Activity (HepG2 [12]) was 17. For the same compound, the Activity (HepG2 [13]) was 19, the Activity (HepG2 [14]) was 27 and the viability at 24 h, 213 µM [15] was 99%. The viability at 24 h, 2135 µM [16] was 95%.
With CCCCCc1ccc(-c2cn(-c3c([N+](=O)[O-])ncn3C)nn2)cc1 the Activity (RAW264.7 [17]) was “Toxic”, the Activity_index (RAW264.7 [18]) was 245 and the Activity_index (RAW264.7 [19]) was 223. The Activity_index (RAW264.7 [20]) was 115, the Activity (RAW264.7 [21]) was 11 and the Activity (RAW264.7 [22]) was 13. It also gave an Activity (RAW264.7 [23]) of 23, an Activity (RAW264.7 [24]) of 39 and a viability at 24 h, 175 µM [25] of 99%. The viability at 24 h, 350 µM [26] was 99%, the Activity_index (HepG2 [27]) was 111 and the Activity_index (HepG2 [28]) was 91. It also gave an Activity_index (HepG2 [29]) of 59, an Activity_index (HepG2 [30]) of 53 and an Activity (HepG2 [31]) of 14. The Activity (HepG2 [32]) was 25, the Activity (HepG2 [33]) was 35 and the Activity (HepG2 [34]) was 42. The viability at 24 h, 175 µM [35] was 99%, the viability at 24 h, 350 µM [36] was 95% and the viability at 24 h, 1750 µM [37] was 80%. For the same compound, the viability at 24 h, 3500 µM [38] was 64%.
